# Measurements taken from patent publication US6355799B1, “Substituted benzene compounds, process for their preparation, and herbicidal and defoliant compositions containing them” (ISK Americas Incorporated, priority 1997, dated 2002).
# Experiments:
# Format in all cases: in vivo
# [1] = system: redroot pigweed (Amaranthus retroflexus, AMARE); experiment: Pre-emerge test, greenhouse herbicide activity screening; details: pre-emerge, 14 days after application, rating scale 0-100
# Method in brief: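 Compounds in acetone were track-sprayed at 15-1000 g ai/ha (187 l/ha) on sandy loam pots: pre-emerge one day after seeding, post-emerge at 2-3 leaf stage with 0.25% v/v non-ionic surfactant. Phytotoxicity was rated 14 days later on a 0 (no damage) to 100 (complete death) scale.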
# [2] = system: field corn (Zea mays L., var. Dekalb 535, CORN); experiment: Post-emerge test, crop safety; details: 14 days after application; for Post-emerge Herbicidal Activity CORN (crop damage rating): rating scale 0-100; for Post-emerge phytotoxicity rating CORN (crop damage): rating scale 0-100 (0 no damage, 100 complete death)
# Method in brief: (§1)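 Compounds in acetone were track-sprayed at 187 l/ha, 15–1000 g ai/ha, onto sandy loam pots. Pre-emerge seeds were sown one day before spraying, with surface watering afterwards. Post-emerge plants were at the 2–3 leaf stage and sprayed with 0.25% v/v non-ionic surfactant. Injury was rated 0–100 at 14 days.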
# [3] = system: upland rice (Oryza sp., var. Tebonnet, RICE); experiment: Post-emerge test, crop safety; details: 14 days after application; for Post-emerge Herbicidal Activity RICE (crop damage rating): rating scale 0-100; for Post-emerge phytotoxicity rating RICE (crop damage): rating scale 0-100 (0 no damage, 100 complete death)
# Method in brief: as §1
# [4] = system: barnyardgrass (Echinochloa crus-galli, ECHCG); experiment: Pre-emerge test, greenhouse herbicide activity screening; details: pre-emerge, 14 days after application, rating scale 0-100
# Method in brief: as §1
# [5] = system: lambsquarters (Chenopodium album, CHEAL); experiment: as above; details: pre-emerge, 14 days after application, rating scale 0-100
# Method in brief: as §1
# [6] = system: green foxtail (Setaria viridis, SETVI); experiment: as above; details: pre-emerge, 14 days after application, rating scale 0-100
# Method in brief: as §1
# [7] = system: large crabgrass (Digitaria sanguinalis, DIGSA); experiment: as above; details: pre-emerge, 14 days after application, rating scale 0-100
# Method in brief: as §1
# [8] = system: sicklepod (Cassia obtusifolia, CASOB); experiment: as above; details: pre-emerge, 14 days after application, rating scale 0-100
# Method in brief: as §1
# [9] = system: velvetleaf (Abutilon theophrasti, ABUTH); experiment: as above; details: pre-emerge, 14 days after application, rating scale 0-100
# Method in brief: as §1
# [10] = system: ivyleaf morningglory (Ipomoea hederacea, IPOHE); experiment: as above; details: pre-emerge, 14 days after application, rating scale 0-100
# Method in brief: as §1
# [11] = system: johnsongrass (Sorghum halepense, SORHA); experiment: as above; details: pre-emerge, 14 days after application, rating scale 0-100
# Method in brief: as §1
# [12] = system: field corn (Zea mays L., var. Dekalb 535, CORN); experiment: Pre-emerge test, crop safety; details: pre-emerge, 14 days after application, rating scale 0-100
# Method in brief: (§2)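 Plants grown in 10 cm pots of sandy loam mix received acetone-dissolved compounds through a moving flat-fan nozzle. Doses ranged from 15 to 1000 g ai/ha. Pre-emerge pots were seeded one day earlier, post-emerge pots 8–21 days earlier. Fourteen days on, each pot was graded 0–100 for damage.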
# [13] = system: upland rice (Oryza sp., var. Tebonnet, RICE); experiment: Pre-emerge test, crop safety; details: pre-emerge, 14 days after application, rating scale 0-100
# Method in brief: as §2
# [14] = system: barnyardgrass (Echinochloa crus-galli, ECHCG); experiment: Post-emerge test, greenhouse herbicide activity screening; details: 14 days after application; for Post-emerge Herbicidal Activity ECHCG (phytotoxicity rating): rating scale 0-100; for Post-emerge Herbicidal Activity, phytotoxicity rating ECHCG: rating scale 0-100 (0 no damage, 100 complete death)
# Method in brief: (§3)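 Visual ratings on a 0-100 scale (0 no damage, 100 all plants dead) were taken at 14 days after treatment. Rates of 15-1000 g ai/ha in acetone, 187 l/ha, were sprayed onto soil one day after planting (pre-emerge) or onto 2-3 leaf plants with 0.25% v/v surfactant (post-emerge).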
# [15] = system: green foxtail (Setaria viridis, SETVI); experiment: as above; details: 14 days after application; for Post-emerge Herbicidal Activity SETVI (phytotoxicity rating): rating scale 0-100; for Post-emerge Herbicidal Activity, phytotoxicity rating SETVI: rating scale 0-100 (0 no damage, 100 complete death)
# Method in brief: as §3
# [16] = system: large crabgrass (Digitaria sanguinalis, DIGSA); experiment: as above; details: 14 days after application; for Post-emerge Herbicidal Activity DIGSA (phytotoxicity rating): rating scale 0-100; for Post-emerge Herbicidal Activity, phytotoxicity rating DIGSA: rating scale 0-100 (0 no damage, 100 complete death)
# Method in brief: as §3
# [17] = system: sicklepod (Cassia obtusifolia, CASOB); experiment: as above; details: 14 days after application; for Post-emerge Herbicidal Activity CASOB (phytotoxicity rating): rating scale 0-100; for Post-emerge Herbicidal Activity, phytotoxicity rating CASOB: rating scale 0-100 (0 no damage, 100 complete death)
# Method in brief: as §3
# [18] = system: velvetleaf (Abutilon theophrasti, ABUTH); experiment: as above; details: 14 days after application; for Post-emerge Herbicidal Activity ABUTH (phytotoxicity rating): rating scale 0-100; for Post-emerge Herbicidal Activity, phytotoxicity rating ABUTH: rating scale 0-100 (0 no damage, 100 complete death)
# Method in brief: as §3
# [19] = system: ivyleaf morningglory (Ipomoea hederacea, IPOHE); experiment: as above; details: 14 days after application; for Post-emerge Herbicidal Activity IPOHE (phytotoxicity rating): rating scale 0-100; for Post-emerge Herbicidal Activity, phytotoxicity rating IPOHE: rating scale 0-100 (0 no damage, 100 complete death)
# Method in brief: as §3
# [20] = system: redroot pigweed (Amaranthus retroflexus, AMARE); experiment: as above; details: 14 days after application
# Method in brief: as §3
# [21] = system: johnsongrass (Sorghum halepense, SORHA); experiment: as above; details: 14 days after application; for Post-emerge Herbicidal Activity SORHA (phytotoxicity rating): rating scale 0-100; for Post-emerge Herbicidal Activity, phytotoxicity rating SORHA: rating scale 0-100 (0 no damage, 100 complete death)
# Method in brief: as §3
structure (smiles),measurement,setting,value
COc1c(Cl)cc(F)c(-n2c(=O)cc(C(F)(F)F)n(C)c2=O)c1NN=CC(C)c1ccccc1 (stereo not drawn) [15-17],phytotoxicity rating AMARE,[1]; 63 g ai/ha,100
same,phytotoxicity rating AMARE,[1]; 250 g ai/ha,100
same,Post-emerge Herbicidal Activity CORN (crop damage rating),[2]; 63 g ai/ha,35
same,Post-emerge Herbicidal Activity CORN (crop damage rating),[2]; 250 g ai/ha,80
same,Post-emerge Herbicidal Activity RICE (crop damage rating),[3]; 63 g ai/ha,75
same,Post-emerge Herbicidal Activity RICE (crop damage rating),[3]; 250 g ai/ha,90
same,phytotoxicity rating ECHCG,[4]; 63 g ai/ha,100
same,phytotoxicity rating ECHCG,[4]; 250 g ai/ha,100
same,phytotoxicity rating CHEAL,[5]; 63 g ai/ha,100
same,phytotoxicity rating CHEAL,[5]; 250 g ai/ha,100
same,phytotoxicity rating SETVI,[6]; 63 g ai/ha,100
same,phytotoxicity rating SETVI,[6]; 250 g ai/ha,100
same,phytotoxicity rating DIGSA,[7]; 63 g ai/ha,100
same,phytotoxicity rating DIGSA,[7]; 250 g ai/ha,100
same,phytotoxicity rating CASOB,[8]; 63 g ai/ha,100
same,phytotoxicity rating CASOB,[8]; 250 g ai/ha,100
same,phytotoxicity rating ABUTH,[9]; 63 g ai/ha,100
same,phytotoxicity rating ABUTH,[9]; 250 g ai/ha,100
same,phytotoxicity rating IPOHE,[10]; 63 g ai/ha,100
same,phytotoxicity rating IPOHE,[10]; 250 g ai/ha,100
same,phytotoxicity rating SORHA,[11]; 63 g ai/ha,100
same,phytotoxicity rating SORHA,[11]; 250 g ai/ha,100
same,phytotoxicity rating CORN,[12]; 63 g ai/ha,80
same,phytotoxicity rating CORN,[12]; 250 g ai/ha,95
same,phytotoxicity rating RICE,[13]; 63 g ai/ha,100
same,phytotoxicity rating RICE,[13]; 250 g ai/ha,100
same,Post-emerge Herbicidal Activity ECHCG (phytotoxicity rating),[14]; 63 g ai/ha,50
same,Post-emerge Herbicidal Activity ECHCG (phytotoxicity rating),[14]; 250 g ai/ha,99
same,Post-emerge Herbicidal Activity SETVI (phytotoxicity rating),[15]; 63 g ai/ha,40
same,Post-emerge Herbicidal Activity SETVI (phytotoxicity rating),[15]; 250 g ai/ha,90
same,Post-emerge Herbicidal Activity DIGSA (phytotoxicity rating),[16]; 63 g ai/ha,40
same,Post-emerge Herbicidal Activity DIGSA (phytotoxicity rating),[16]; 250 g ai/ha,99
same,Post-emerge Herbicidal Activity CASOB (phytotoxicity rating),[17]; 63 g ai/ha,80
same,Post-emerge Herbicidal Activity CASOB (phytotoxicity rating),[17]; 250 g ai/ha,100
same,Post-emerge Herbicidal Activity ABUTH (phytotoxicity rating),[18]; 63 g ai/ha,100
same,Post-emerge Herbicidal Activity ABUTH (phytotoxicity rating),[18]; 250 g ai/ha,100
same,Post-emerge Herbicidal Activity IPOHE (phytotoxicity rating),[19]; 63 g ai/ha,100
same,Post-emerge Herbicidal Activity IPOHE (phytotoxicity rating),[19]; 250 g ai/ha,100
same,Post-emerge Herbicidal Activity AMARE (phytotoxicity rating),"[20]; 63 g ai/ha, rating scale 0-100 (0 no damage, 100 complete death)",90
same,Post-emerge Herbicidal Activity AMARE (phytotoxicity rating),"[20]; 250 g ai/ha, rating scale 0-100",100
same,Post-emerge Herbicidal Activity SORHA (phytotoxicity rating),[21]; 63 g ai/ha,20
same,Post-emerge Herbicidal Activity SORHA (phytotoxicity rating),[21]; 250 g ai/ha,95
CCOC(=O)C(Cl)Cc1cc(Cl)cc(F)c1-n1nc(C)n(C(F)F)c1=O (stereo not drawn) [14-52],phytotoxicity rating AMARE,[1]; 63 g ai/ha,40
same,phytotoxicity rating AMARE,[1]; 250 g ai/ha,90
same,Post-emerge phytotoxicity rating CORN (crop damage),[2]; Rate 63 g ai/ha,0
same,Post-emerge phytotoxicity rating CORN (crop damage),[2]; Rate 250 g ai/ha,10
same,Post-emerge phytotoxicity rating RICE (crop damage),[3]; Rate 63 g ai/ha,0
same,Post-emerge phytotoxicity rating RICE (crop damage),[3]; Rate 250 g ai/ha,0
same,phytotoxicity rating ECHCG,[4]; 63 g ai/ha,0
same,phytotoxicity rating ECHCG,[4]; 250 g ai/ha,0
same,phytotoxicity rating CHEAL,[5]; 63 g ai/ha,80
same,phytotoxicity rating CHEAL,[5]; 250 g ai/ha,100
same,phytotoxicity rating SETVI,[6]; 63 g ai/ha,0
same,phytotoxicity rating SETVI,[6]; 250 g ai/ha,0
same,phytotoxicity rating DIGSA,[7]; 63 g ai/ha,0
same,phytotoxicity rating DIGSA,[7]; 250 g ai/ha,0
same,phytotoxicity rating CASOB,[8]; 63 g ai/ha,0
same,phytotoxicity rating CASOB,[8]; 250 g ai/ha,0
same,phytotoxicity rating ABUTH,[9]; 63 g ai/ha,70
same,phytotoxicity rating ABUTH,[9]; 250 g ai/ha,100
same,phytotoxicity rating IPOHE,[10]; 63 g ai/ha,0
same,phytotoxicity rating IPOHE,[10]; 250 g ai/ha,30
same,phytotoxicity rating SORHA,[11]; 63 g ai/ha,0
same,phytotoxicity rating SORHA,[11]; 250 g ai/ha,0
same,phytotoxicity rating CORN,[12]; 63 g ai/ha,0
same,phytotoxicity rating CORN,[12]; 250 g ai/ha,0
same,phytotoxicity rating RICE,[13]; 63 g ai/ha,0
same,phytotoxicity rating RICE,[13]; 250 g ai/ha,0
same,"Post-emerge Herbicidal Activity, phytotoxicity rating ECHCG",[14]; Rate 63 g ai/ha,0
same,"Post-emerge Herbicidal Activity, phytotoxicity rating ECHCG",[14]; Rate 250 g ai/ha,10
same,"Post-emerge Herbicidal Activity, phytotoxicity rating SETVI",[15]; Rate 63 g ai/ha,0
same,"Post-emerge Herbicidal Activity, phytotoxicity rating SETVI",[15]; Rate 250 g ai/ha,0
same,"Post-emerge Herbicidal Activity, phytotoxicity rating DIGSA",[16]; Rate 63 g ai/ha,0
same,"Post-emerge Herbicidal Activity, phytotoxicity rating DIGSA",[16]; Rate 250 g ai/ha,0
same,"Post-emerge Herbicidal Activity, phytotoxicity rating CASOB",[17]; Rate 63 g ai/ha,0
same,"Post-emerge Herbicidal Activity, phytotoxicity rating CASOB",[17]; Rate 250 g ai/ha,70
same,"Post-emerge Herbicidal Activity, phytotoxicity rating ABUTH",[18]; Rate 63 g ai/ha,90
same,"Post-emerge Herbicidal Activity, phytotoxicity rating ABUTH",[18]; Rate 250 g ai/ha,100
same,"Post-emerge Herbicidal Activity, phytotoxicity rating IPOHE",[19]; Rate 63 g ai/ha,100
same,"Post-emerge Herbicidal Activity, phytotoxicity rating IPOHE",[19]; Rate 250 g ai/ha,100
same,"Post-emerge Herbicidal Activity, phytotoxicity rating AMARE","[20]; Rate 63 g ai/ha, rating scale 0-100 (0 no damage, 100 complete death)",20
same,"Post-emerge Herbicidal Activity, phytotoxicity rating AMARE","[20]; Rate 250 g ai/ha, rating scale 0-100 (0 no damage, 100 complete death)",50
same,"Post-emerge Herbicidal Activity, phytotoxicity rating SORHA",[21]; Rate 63 g ai/ha,0
same,"Post-emerge Herbicidal Activity, phytotoxicity rating SORHA",[21]; Rate 250 g ai/ha,0
